Where a name gives a salt, the structure may show the parent alone.
System: Huh7 cells expressing a subgenomic RNA replicon of Con1 (genotype 1b) sequence origin
Assay: microbe, parasite or virus in culture
Details: Hepatitis C virus, Huh-7

Question: For `C=C1C[C@@H]2[C@H](CC[C@]3(C)C(=O)CC[C@@H]23)[C@@]2(C)C=CC(=O)C=C12` [Exemestane, reference compound], which IC50 is on record?
Answer: 29 µM

Question: `O=C1C(CC[C@@H](O)c2ccc(F)cc2)[C@@H](c2ccc(O)cc2)N1c1ccc(F)cc1` (stereo partly shown) [Ezetimibe, ezitamibe, reference compound] was tested. Which IC50 did it give?
Answer: 4.2 µM

Question: With `O=C1c2ccccc2-[n+]2ccc3c([nH]c4ccccc43)c21` [Fascaplysin, reference compound] as the compound, how does the IC50 read?
Answer: 0.444 µM

Question: For `COC(=O)Nc1nc2ccc(Sc3ccccc3)cc2[nH]1` [Fenbendazole, reference compound], which IC50 is on record?
Answer: 0.419 µM

Question: How did the IC50 turn out when `CC1=C(/C=C/C(C)=C/C=C/C(C)=C/C(=O)Nc2ccc(O)cc2)C(C)(C)CCC1` [Fenretinide, reference compound] was run?
Answer: 2.26 µM

Question: With `CC(C)C(C(=O)OC(C#N)c1cccc(Oc2ccccc2)c1)c1ccc(Cl)cc1` (stereo not shown) [Fenvalerate] as the compound, how does the IC50 read?
Answer: 18.9 µM

Question: `O=c1[nH]c(=O)n([C@H]2C[C@H](O)[C@@H](CO)O2)cc1F` [Floxuridine, floxuridine, reference compound] was tested. Which IC50 did it give?
Answer: 0.0045 µM

Question: `COC(=O)Nc1nc2cc(C(=O)c3ccc(F)cc3)ccc2[nH]1` [Flubendazole, reference compound] was tested. Which IC50 did it give?
Answer: 0.173 µM

Question: Which IC50 does the source give for `Nc1nc(F)nc2c1ncn2[C@@H]1O[C@H](CO)[C@@H](O)[C@@H]1O` [Fludarabine, reference compound] here?
Answer: 4.47 µM

Question: `O=c1[nH]cc(F)c(=O)[nH]1` [Fluorouracil, reference compound] was tested. Which IC50 did it give?
Answer: 18.7 µM

Question: How did the IC50 turn out when `CC(C)n1c(/C=C/C(O)CC(O)CC(=O)O)c(-c2ccc(F)cc2)c2ccccc21` (stereo not shown) [Fluvastatin (e.g., sodium), fluvastatin, reference compound] was run?
Answer: 22.2 µM

Question: How did the IC50 turn out when `COCCCC/C(=N\OCCN)c1ccc(C(F)(F)F)cc1` [Fluvoxamine (e.g., maleate), Fluvoxamine, reference compound] was run?
Answer: 23.8 µM

Question: `C[C@]12CC[C@@H]3c4ccc(O)cc4C[C@@H](CCCCCCCCC[S+]([O-])CCCC(F)(F)C(F)(F)F)[C@H]3[C@@H]1CC[C@@H]2O` (stereo partly shown) [Fulvestrant, reference compound] was tested. Which IC50 did it give?
Answer: 3.05 µM

Question: For `Nc1ccn([C@@H]2O[C@H](CO)[C@@H](O)C2(F)F)c(=O)n1` [Gemcitabine (e.g., hydrochloride), Gemcitabine, reference compound], which IC50 is on record?
Answer: 0.06 µM

Question: `COC1=CC(=O)C[C@@H](C)[C@]12Oc1c(Cl)c(OC)cc(OC)c1C2=O` [Griseofulvin (e.g., microcrystalline), Griseofulvin, reference compound] was tested. Which IC50 did it give?
Answer: 11.5 µM

Question: Which IC50 does the source give for `CC1(C)O[C@@H]2C[C@H]3[C@@H]4CCC5=CC(=O)CC[C@]5(C)[C@@]4(F)[C@@H](O)C[C@]3(C)[C@]2(C(=O)CCl)O1` [Halcinonide, halcinonide, reference compound] here?
Answer: 17.4 µM

Question: With `Oc1ccc(O)cc1` [Hydroquinone, reference compound] as the compound, how does the IC50 read?
Answer: 14 µM

Question: `CC(C(O)c1ccc(O)cc1)N1CCC(Cc2ccccc2)CC1` (stereo not shown) [Ifenprodil (e.g., tartrate), Ifenprodil, reference compound] was tested. Which IC50 did it give?
Answer: 4.68 µM

Question: Which IC50 does the source give for `CN(C)CCCN1c2ccccc2CCc2ccccc21` [Imipramine (e.g., hydrochloride), Imipramine, reference compound] here?
Answer: 16.9 µM

Question: How did the IC50 turn out when `CC1(C)C(/C=C/C=C/C=C/C=C2\N(CCCCS(=O)(=O)O)c3ccc4ccccc4c3C2(C)C)=[N+](CCCCS(=O)(=O)[O-])c2ccc3ccccc3c21` [Indocyanine Green, reference compound] was run?
Answer: 8.13 µM

Question: Which IC50 does the source give for `CCc1c2c(nc3ccc(OC(=O)N4CCC(N5CCCCC5)CC4)cc13)-c1cc3c(c(=O)n1C2)COC(=O)[C@]3(O)CC` [Irinotecan (e.g., hydrochloride), irinotecan (CPT-11), reference compound] here?
Answer: 1.56 µM

Question: For `O=c1cc(N2CCOCC2)oc2c(-c3ccccc3)cccc12` [LY 294002, reference compound], which IC50 is on record?
Answer: 3.4 µM

Question: How did the IC50 turn out when `N[C@@H](Cc1cc(I)c(Oc2cc(I)c(O)c(I)c2)c(I)c1)C(=O)O` [Levothyroxine (e.g., sodium), Levothyroxine, reference compound] was run?
Answer: 3.79 µM

Question: For `CCN(CCCCOC(=O)c1ccc(OC)c(OC)c1)C(C)Cc1ccc(OC)cc1` (stereo not shown) [Mebeverine (e.g., hydrochloride), Mebeverine, reference compound], which IC50 is on record?
Answer: 14.9 µM

Question: With `Cc1cccc(CN2CCN(C(c3ccccc3)c3ccc(Cl)cc3)CC2)c1` (stereo not shown) [Meclizine, meclizine, reference compound] as the compound, how does the IC50 read?
Answer: 14.6 µM

Question: `N[C@@H](Cc1ccc(N(CCCl)CCCl)cc1)C(=O)O` [Melphalan, reference compound] was tested. Which IC50 did it give?
Answer: 5.94 µM

Question: Which IC50 does the source give for `COc1ccc(O)cc1` [Mequinol, reference compound] here?
Answer: 18.7 µM

Question: With `COc1cc(NC(=O)Nc2cccc(CNC(=O)O[C@H]3CCOC3)c2)ccc1-c1cnco1` [Merimepodib (VX-497), merimepodib, reference compound] as the compound, how does the IC50 read?
Answer: 0.475 µM

Question: For `CN1CCCCC1CCN1c2ccccc2Sc2ccc([S+](C)[O-])cc21` (stereo not shown) [Mesoridazine (e.g., Besylate), mesoridazine, reference compound], which IC50 is on record?
Answer: 19 µM

Question: How did the IC50 turn out when `C[C@H]1CC(=O)C[C@@H]2CC[C@H]3[C@@H]4CC[C@H](O)[C@@]4(C)CC[C@@H]3[C@]21C` [Mesterolone, mesterolone, reference compound] was run?
Answer: 5.18 µM

Question: For `CC(C=NNC(=N)N)=NNC(=N)N` [Methylglyoxal bis(guanylhydrazone) dihydrochloride hydrate, reference compound], which IC50 is on record?
Answer: 10.8 µM

Question: With `C[C@]12CCC(=O)C=C1CC[C@@H]1[C@@H]2CC[C@@]2(C)[C@H]1CC[C@]2(C)O` [Methyltestosterone, methyltestosterone, reference compound] as the compound, how does the IC50 read?
Answer: 19.1 µM

Question: How did the IC50 turn out when `CC[C@H](C)C(=O)O[C@H]1CCC=C2C=C[C@H](C)[C@H](CC[C@@H]3C[C@@H](O)CC(=O)O3)[C@H]21` [Mevastatin, reference compound] was run?
Answer: 3.45 µM

Question: Which IC50 does the source give for `CCCCC1C(=O)NN(c2ccccc2)C1=O` (stereo not shown) [Mofebutazone, mofebutazone, reference compound] here?
Answer: 14.6 µM

Question: For `Oc1ccc(OCc2ccccc2)cc1` [Monobenzone, reference compound], which IC50 is on record?
Answer: 1.59 µM

Question: How did the IC50 turn out when `CCOc1cc(N)c(Cl)cc1C(=O)NCC1CN(Cc2ccc(F)cc2)CCO1` (stereo not shown) [Mosapride (e.g., citrate), mosapride, reference compound] was run?
Answer: 10.9 µM

Question: With `COc1c(C)c2c(c(O)c1C/C=C(\C)CCC(=O)O)C(=O)OC2` [Mycophenolic Acid, Mycophenolic acid, reference compound] as the compound, how does the IC50 read?
Answer: 0.751 µM

Question: Which IC50 does the source give for `CC[C@@H](C(=O)O)[C@@H]1O[C@@H]([C@@H](C)[C@H](O)[C@H](C)C(=O)[C@H](CC)[C@H]2O[C@]3(C=C[C@@H](O)[C@]4(CC[C@@](C)([C@H]5CC[C@](O)(CC)[C@H](C)O5)O4)O3)[C@H](C)C[C@@H]2C)[C@@H](C)C[C@@H]1C` [Narasin, reference compound] here?
Answer: 0.176 µM

Question: `Cc1c(O)cccc1C(=O)N[C@@H](CSc1ccccc1)[C@H](O)CN1C[C@H]2CCCC[C@H]2C[C@H]1C(=O)NC(C)(C)C` [Nelfinavir (e.g., mesylate), nelfinavir, reference compound] was tested. Which IC50 did it give?
Answer: 4.25 µM

Question: How did the IC50 turn out when `CC(=O)Oc1ccccc1C(=O)Nc1ncc([N+](=O)[O-])s1` [Nitazoxanide, nitazoxanide, reference compound] was run?
Answer: 14 µM

Question: Which IC50 does the source give for `COc1ccc2c(c1OC)C(=O)O[C@@H]2[C@H]1c2c(cc3c(c2OC)OCO3)CCN1C` [Noscapine, reference compound] here?
Answer: 15.8 µM

Question: How did the IC50 turn out when `CCCCC(CC)COC(=O)/C=C/c1ccc(OC)cc1` (stereo not shown) [Octyl Methoxycinnamate, reference compound] was run?
Answer: 1.24 µM

Question: Which IC50 does the source give for `CCN(CC)CCOCCOC(=O)C(CC)(CC)c1ccccc1` [Oxeladin, reference compound] here?
Answer: 8.72 µM

Question: With `COC(=O)Nc1nc2ccc([S+]([O-])c3ccccc3)cc2[nH]1` (stereo not shown) [Oxfendazole, reference compound] as the compound, how does the IC50 read?
Answer: 7.3 µM

Question: Which IC50 does the source give for `CCCOc1ccc2nc(NC(=O)OC)[nH]c2c1` [Oxibendazole, reference compound] here?
Answer: 0.3 µM

Question: For `CC(=O)O[C@H]1C(=O)[C@@]2(C)[C@H]([C@H](OC(=O)c3ccccc3)[C@]3(O)C[C@H](OC(=O)[C@H](O)[C@@H](NC(=O)c4ccccc4)c4ccccc4)C(C)=C1C3(C)C)[C@]1(OC(C)=O)CO[C@@H]1C[C@@H]2O` [Paclitaxel, reference compound], which IC50 is on record?
Answer: 0.0092 µM

Question: `C=C1C(=O)O[C@H]2[C@H]1CC/C(C)=C/CC[C@@]1(C)O[C@@H]21` [Parthenolide, reference compound] was tested. Which IC50 did it give?
Answer: 2.69 µM

Question: With `O=C1[C@H]2CCCC[C@H]2C(=O)N1CCCCN1CCN(c2nsc3ccccc23)CC1` [Perospirone, reference compound] as the compound, how does the IC50 read?
Answer: 3.6 µM

Question: For `Nc1ccc(/N=N/c2ccccc2)c(N)n1` [Phenazopyridine (e.g., hydrochloride), Phenazopyridine, reference compound], which IC50 is on record?
Answer: 7.85 µM

Question: Which IC50 does the source give for `Oc1cc(O)cc(/C=C/c2ccc(O)c(O)c2)c1` [Piceatannol, reference compound] here?
Answer: 5.47 µM

Question: With `CN(C)CCCN1c2ccccc2Sc2ccccc21` [Promazine (e.g., hydrochloride), promazine, reference compound] as the compound, how does the IC50 read?
Answer: 16.1 µM

Question: For `CC[N+](C)(CC)CCC[n+]1c(-c2ccccc2)c2cc(N)ccc2c2ccc(N)cc21` [Propidium (e.g., iodide), Propidium, reference compound], which IC50 is on record?
Answer: 9.38 µM

Question: For `CCN(CC)CCCC(C)Nc1c2ccc(Cl)cc2nc2ccc(OC)cc12` (stereo not shown) [Quinacrine, reference compound], which IC50 is on record?
Answer: 4.17 µM

Question: For `C#C[C@]1(O)CC[C@H]2[C@@H]3CCc4cc(OC5CCCC5)ccc4[C@H]3CC[C@@]21C` [Quinestrol, reference compound], which IC50 is on record?
Answer: 5.43 µM

Question: How did the IC50 turn out when `O=C(c1ccc(OCCN2CCCCC2)cc1)c1c(-c2ccc(O)cc2)sc2cc(O)ccc12` [Raloxifene (e.g., hydrochloride), Raloxifene, reference compound] was run?
Answer: 3.74 µM

Question: Which IC50 does the source give for `CCOc1cc(CC(=O)N[C@@H](CC(C)C)c2ccccc2N2CCCCC2)ccc1C(=O)O` [Repaglinide, reference compound] here?
Answer: 12.2 µM

Question: For `COC(=O)[C@H]1[C@H]2C[C@@H]3c4[nH]c5cc(OC)ccc5c4CCN3C[C@H]2C[C@@H](OC(=O)/C=C/c2cc(OC)c(OC)c(OC)c2)[C@@H]1OC` [Rescinnamine, reference compound], which IC50 is on record?
Answer: 7.88 µM

Question: For `COC(=O)[C@H]1[C@H]2C[C@@H]3c4[nH]c5cc(OC)ccc5c4CCN3C[C@H]2C[C@@H](OC(=O)c2cc(OC)c(OC)c(OC)c2)[C@@H]1OC` [Reserpine, reference compound], which IC50 is on record?
Answer: 25.3 µM

Reference: patent US20100009970A1, “COMPOSITIONS AND METHODS FOR TREATMENT OF VIRAL DISEASES” (Combinatorx (Singapore) Pte. Ltd., priority 2008, published 2010)
